Earlier results, collected in patent publication US20030072777A1, “Combinatorial anti-acne compositions” (priority 2001, published 2003).
Where two headings read alike, the source gives them in different places.

Legend:
[1] = system: inflammatory lesions and comedones of acne vulgaris
[2] = system: P. acnes; settings: 5 percent benzoyl peroxide two times daily for five days
[3] = system: sebaceous glands; settings: retinoid treatment

Row | SMILES | Average percent reduction of non-inflamed lesions (mean comedone counts) ([1]; Week 2, data from Chalker et al. FIG. 1) [%] | Average percent reduction of inflamed lesions (mean inflammatory lesion counts) ([1]; Week 2, data from Chalker et al. FIG. 4) [%] | Average percent reduction of non-inflamed lesions (mean comedone counts) ([1]; Week 4, data from Chalker et al. FIG. 1) [%] | Average percent reduction of inflamed lesions (mean inflammatory lesion counts) ([1]; Week 4, data from Chalker et al. FIG. 4) [%] | Average percent reduction of non-inflamed lesions (mean comedone counts) ([1]; Week 6, data from Chalker et al. FIG. 1) [%] | Average percent reduction of inflamed lesions (mean inflammatory lesion counts) ([1]; Week 6, data from Chalker et al. FIG. 4) [%] | Reduction of P. acnes population [2] | Shrinkage of the glands [3]
1 | O=C(OOC(=O)c1ccccc1)c1ccccc1 [5.0% Benzoyl peroxide, Benzoyl peroxide] | 12 | 27 | 15 | 21 | 28 | 46 | more than 95% | –
2 | CC1=C(/C=C/C(C)=C/C=C/C(C)=C\C(=O)O)C(C)(C)CCC1 [isotretinoin, 13-cis retinoic acid] | – | – | – | – | – | – | – | about 90%
